According to patent US9957262B2, “Opioid analgesic” (NATIONAL UNIVERSITY CORPORATION CHIBA UNIVERSITY, priority 2013, dated 2018):
“Also recorded” adds a separate entry of the source. Read-outs that look alike come from different tables or passages of the source.

Key:
[1] = tested on: mice; conditions: subcutaneous or oral administration, tail-flick test or hot-plate test; cited from earlier work
[2] = tested on: opioid receptors; conditions: guinea pig small intestine, via opioid receptors; cited from earlier work
[3] = Metabolic stability test, human liver microsome; assay type: in vitro ADME; conditions: for Metabolic stability Ms human (% remaining): human liver microsomal fraction, 37° C., 30 minutes, NADPH; for metabolic stability compared to formula (III), in words: in vitro metabolic stability test using liver microsome
Description: (§1) Liver microsome was used and subjected to a reaction with MGM-30 or MGM-29 for a predetermined time. A sample subjected to the reaction was compared to a sample not subjected to the reaction to calculate a residual ratio for evaluating a degree of a compound that was metabolized in liver. MGM-9 was used as a sample for comparison and evaluated by the same method.
(§2) Commercially available pooled human liver microsome (manufactured by Xenotech) was used as human liver microsome. Pooled rat liver microsome prepared from rat liver by a method known per se was used as rat liver microsome.
(§3) A metabolic stability test was specifically performed as described below. First, a test compound was subjected to a reaction (oxidative reaction) at 37° C. for 0 minutes or 30 minutes in 0.2 mL of a buffer (50 mmol/L tris-HCl pH 7.4, 150 mmol/L potassium chloride, 10 mmol/L magnesium chloride) containing 0.5 mg protein/mL of liver microsome in the presence of 1 mmol/L nicotinamide adenine dinucleotide phosphate (hereinafter abbreviated as NADPH). After the reaction, 50 μL of the reaction liquid was added to 100 μL of a solution of methanol/acetonitrile=1/1 (volume/volume: hereinafter abbreviated as v/v), followed by mixing and centrifugation at 3,000 rpm for 15 minutes. The test compound in the centrifugation supernatant was quantified by liquid chromatograph/tandem mass spectrometry (LC/MS/MS). Then, the amount of the compound at the start of the reaction was defined as 100%, and the residual ratio of the test compound after the reaction was calculated. A hydrolysis reaction was performed in the absence of NADPH, and a glucuronidation reaction was performed in the presence of 5 mM UDP-glucuronic acid in place of NADPH. Then, the same operation was performed.

[4] = molecular target: T1, human μ-opioid receptors (Homo sapiens, UniProt P35372); assay: Human μ-opioid receptor binding test with [3H]-DAMGO; conditions: for Ki: [3H]-DAMGO 1 nM, CHO-K1 membrane fraction expressing human μ-opioid receptor, read-out: hMOR binding Ki
T1 construct: purchased PerkinElmer; host or cells: CHO-K1 cells (membrane fraction)
T1 sequence (P35372 whole entry): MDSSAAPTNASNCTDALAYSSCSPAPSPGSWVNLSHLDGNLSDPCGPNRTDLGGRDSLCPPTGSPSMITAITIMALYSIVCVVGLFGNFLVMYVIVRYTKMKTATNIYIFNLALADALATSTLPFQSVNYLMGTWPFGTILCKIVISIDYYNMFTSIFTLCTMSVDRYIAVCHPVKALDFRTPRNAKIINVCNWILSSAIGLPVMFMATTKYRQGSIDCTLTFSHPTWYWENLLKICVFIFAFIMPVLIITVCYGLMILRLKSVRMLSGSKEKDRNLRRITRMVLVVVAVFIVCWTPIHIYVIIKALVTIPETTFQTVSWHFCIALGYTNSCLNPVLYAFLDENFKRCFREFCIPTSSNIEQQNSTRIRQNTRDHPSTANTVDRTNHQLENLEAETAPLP
Method: The binding of each of MGM-30 and MGM-29 to human μ-opioid receptors was evaluated through use of a μ-opioid receptor ligand DAMGO ([D-Ala(2), N-Me-Phe(4), Gly-ol(5)] enkephalin acetate salt). MGM-9 was used as a sample for comparison and evaluated by the same method.
A cell membrane fraction of CHO-K1 cells expressing human μ-opioid receptor gene (manufactured by PerkinElmer) was used as a reagent. The human μ-opioid receptor-expressing cell membrane fraction was diluted to 1 mg/mL or 100 μg/mL with 50 mM Tris-HCl (pH 7.4), and then 1 mL of the dilution was dispensed in each of screw-capped vials, cryopreserved at −80° C., and dissolved before use. DAMGO was prepared at 1 mM with dimethylsulfoxide (hereinafter abbreviated as DMSO), and then dispensed in each of screw-capped vials, cryopreserved at −20° C., and dissolved before use.
A human μ-opioid receptor binding test was performed through use of the human μ-opioid receptor-expressing cell membrane fraction and [^3H]-labeled DAMGO (DAMGO, [TYROSYL-3,5-3H], manufactured by PerkinElmer: hereinafter referred to as [^3H]-DAMGO). Specifically, 10 μL of [^3H]-DAMGO (final concentration: 1 nM) diluted to 50 nM with 50% ethanol was added to 10 μL of a test compound solution obtained by diluting each of MGM-30, MGM-29, and MGM-9 with DMSO so as to have a final concentration of from 0.1 nM to 10,000 nM. 480 μL of the μ-opioid receptor-expressing cell membrane fraction diluted to 40 μg/mL with binding assay buffer (10 mM MgCl2, 50 mM Tris-HCl, 0.2% BSA, pH 7.4) was further added, followed by mixing, and the mixture was then subjected to a reaction at 27° C. for 2 hours. The same tests were performed for measurement of total binding activity by using 10 μL of DMSO in place of the test compound, and for measurement of μ-opioid receptor non-specific binding activity by using 10 μL of 1 mM DAMGO (final concentration: 20 μM) in place of the test compound. The binding reaction was terminated by suction filtration with a GF/C filter (manufactured by Whatman) preimmersed in 0.5% polyethylene imine. The filter was washed four times with 2.5 mL of a washing buffer (10 mM Tris-HCl, pH 7.4), and radioactivity remaining in the filter was measured. Then, a dissociation constant (Kd value) of [^3H]-DAMGO for the μ-opioid receptor-expressing cell membrane fraction was calculated by Scatchard plot analysis.
IC50 value was calculated, which is a test compound concentration at which the specific binding of [^3H]-DAMGO to human μ-opioid receptors was inhibited by 50%, by using analysis software XLfit™ ([…]). Then, an inhibition constant (Ki value) was calculated using the following equation: Ki=IC50/(1+S), S=(Concentration of [^3H]-DAMGO/Kd of [^3H]-DAMGO).

[5] = tested on: ddY strain mice; assay: Mouse tail-flick test, subcutaneous administration; assay type: in vivo; conditions: for analgesic action in words: s.c., 0.3, 1 and 3 mg/kg; for time after administration at which the analgesic action returned to the vehicle level: any of the doses
Method: The results of the test are represented by dose-response curves. […] In addition, a similar test was performed by using a vehicle as a negative control. The analgesic action of each compound was quantified by using a percentage of maximum possible effect (% MPE). % MPE was calculated from the following equation: % MPE=[(Post-drug latency−Pre-drug latency)/(Cut-off time−Pre-drug latency)]×100. The abscissa axis of FIG. 1 indicates a time after the administration of each compound (time after injection (min)).
Six-week-old male ddY strain mice (Japan SLC, Inc.) were used.
MGM-30 and MGM-29 were each dissolved in 25 mM phosphate buffer (pH 5.3 to 5.5). MGM-9, which was a known mitragynine derivative compound, was used as a sample for comparison. MGM-9 was obtained by synthesis according to a method similar to a method described in each of the previous reports (Patent Literatures 2 and 3 and Non Patent Literature 3).
A tail-flick test is a method of evaluating the analgesic effect of a compound, which comprises applying a nociceptive stimulus, for example, a heat stimulus, to the tail of a mouse, and then using as an indicator flight response elicited by the stimulus. Since a mouse respond to the heat stimulus by flicking or moving its tail out of the path of the stimulus, the tail is exposed to a photocell located in a tail-flick analgesia meter (Ugo Basile Tail-flick Unit 7360, Ugo Basile) immediately below the tail. A reaction time is automatically recorded.
Before treatment with the compounds, the vehicle, or physiological saline, a nociceptive threshold was measured three times, and the mean of the reaction time was used as a pre-drug latency for each mouse. The intensity of the heat stimulus was adjusted to such an intensity that mice flicked the tail upward within from 2 seconds to 4 seconds, and a time for heat treatment was set to a maximum stimulation time (cut-off time) of 10 seconds in order to prevent tissue damage. Each of the compounds was subcutaneously administered to mice in a volume of 10 mL/kg with doses 0.3 mg/kg, 1 mg/kg, and 3 mg/kg. A latency after the administration (post-drug latency) was measured 15 minutes, 30 minutes, 45 minutes, 60 minutes, 90 minutes, 120 minutes, and 180 minutes after the administration. The vehicle used for diluting the compounds was used as a control in place of the compounds, and was administered in the same volume. The analgesic action of each compound was quantified through use of a ratio to the maximum drug efficacy, i.e., a percentage of maximum possible effect (hereinafter abbreviated as % MPE) % MPE was calculated from the following equation: % MPE=[(Post-drug latency−Pre-drug latency)/(Cut-off time−Pre-drug latency)]×100. Each value is expressed as the mean of data obtained from six mice±standard error.
Data was expressed as the mean±standard error. Statistical analyses were performed by the two-tailed Student's t test for comparison of two groups and by a one-way analysis of variance followed by a Bonferroni multiple-comparison test for comparison of more than two groups. A P value of <0.05 was considered statistically significant.

[6] = molecular target: hMOR (human μ-opioid receptors) (Homo sapiens, UniProt P35372); assay: hMOR agonist activity (% DAMGO); assay type: biochemical
Chain of hMOR (human μ-opioid receptors) (P35372 whole entry): as above

[7] = Metabolic stability test, rat liver microsome; assay type: in vitro ADME; conditions: rat liver microsomal fraction, 37° C., 30 minutes, NADPH
Description: as §1, §2, §3

[8] = 3 mg/kg s.c., 15 minutes after administration
[9] = 3 mg/kg s.c., 15 minutes to 60 minutes after administration

SMILES	Metabolic stability Ms human (% remaining) [3] [% remaining]	metabolic stability compared to formula (III), in words [3]	Ki [4] [nM]	analgesic action (% MPE) [5, 8]	analgesic action in words [5]	hMOR agonist (% DAMGO) [6] [% DAMGO]	Metabolic stability Ms rat (% remaining) [7] [% remaining]	analgesic action (% MPE) [5, 9] [%]	time after administration at which the maximum analgesic action was expressed ([5]; s.c.) [min]	time after administration at which the analgesic action returned to the vehicle level ([5]; s.c.)	also measured
CC[C@@H]1CN2CC[C@@]3(O)C(=Nc4cccc(OC)c43)[C@@H]2C[C@@H]1/C(=C\OC)C(=O)OC [7-hydroxymitragynine]											antinociceptive action [1]: remarkable antinociceptive action; effect on contraction induced by electrical stimulation [2]: inhibited contraction induced by electrical stimulation
CC[C@@H]1CN2CC[C@@]34OCCC[C@@]3(Nc3cccc(OC)c34)[C@@H]2C[C@@H]1/C(=C\OC)C(=O)OC [MGM-29]	78	remarkably high metabolic stability	4.9	about 20%	limited analgesic action; also recorded: dose-dependent analgesic action	45.9	36				binding affinity for human μ-opioid receptors relative to MGM-9 (formula (III)), in words [4]: comparable to that of MGM-9; binding affinity for human μ-opioid receptors relative to MGM-9 (formula (III)), in words ([4]; listed as formula (II)): comparable to that of the compound represented by the formula (III); analgesic action in words ([5]; listed as formula (II)): exhibited an analgesic action, although the action was determinative
CC[C@@H]1CN2CC[C@@]34OCCO[C@@]3(Nc3ccc(F)c(OC)c34)[C@@H]2C[C@@H]1/C(=C\OC)C(=O)OC [MGM-9, reference compound]	57		3.5	100%	dose-dependent analgesic action	49.0	3	100	15	One hundred and eighty	analgesic action (% MPE) ([5]; 1 mg/kg s.c., 15 minutes after administration): 100%; time after administration until which the analgesic action was sustained ([5]; 3 mg/kg s.c.): 120 min
CC[C@@H]1CN2CC[C@@]34OCC[C@@]3(Nc3cccc(OC)c34)[C@@H]2C[C@@H]1/C(=C\OC)C(=O)OC [MGM-30]	92	remarkably high metabolic stability	0.12		dose-dependent analgesic action; also recorded: most potent analgesic action and had the longest duration of action	46.2	43	100	15	180 min	binding affinity for human μ-opioid receptors relative to MGM-9 (formula (III)) [4]: about 30 fold; analgesic action (% MPE) ([5]; 0.3 mg/kg s.c., 15 minutes to 30 minutes after administration): about 95%; time after administration until which the analgesic action was sustained ([5]; 1 mg/kg and 3 mg/kg s.c.): 90 min; analgesic action (% MPE) ([5]; 1 mg/kg s.c., 15 minutes to 60 minutes after administration): 100%; analgesic action relative to the compound of formula (III) (MGM-9) ([5]; s.c.): approximately 3 fold; analgesic action in words ([5]; listed as formula (I)): potent analgesic action in a dose-dependent manner
